Source: patent US12275729B2 (Merck Sharp & Dohme LLC, priority 2017, dated 2025)

These compounds were tested against IDO1 (Homo sapiens, UniProt P14902) (assay: IDO1 Cellular Assay in HeLa Cells Stimulated with IFNγ). Conditions: about 48 hours, read-out: Hela IC50.
Type: cell-based

Chain of IDO1 (P14902 whole entry): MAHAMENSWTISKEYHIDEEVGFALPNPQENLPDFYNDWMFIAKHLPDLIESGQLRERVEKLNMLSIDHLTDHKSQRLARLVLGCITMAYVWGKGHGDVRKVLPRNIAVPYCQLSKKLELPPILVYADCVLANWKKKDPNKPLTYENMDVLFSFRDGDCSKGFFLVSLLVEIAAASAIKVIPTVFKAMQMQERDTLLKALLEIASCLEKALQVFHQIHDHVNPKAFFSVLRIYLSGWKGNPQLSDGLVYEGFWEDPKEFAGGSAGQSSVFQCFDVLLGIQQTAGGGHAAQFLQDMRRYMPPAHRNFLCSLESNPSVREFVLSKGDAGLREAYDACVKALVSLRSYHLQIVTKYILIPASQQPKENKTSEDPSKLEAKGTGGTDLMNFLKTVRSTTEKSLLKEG

Question: Which IC50 does the source give for `CC(C)C(C(=O)Nc1ccc(F)cc1)c1ccc2c(n1)CCCN2C(=O)C1CC1` (stereo not shown) [Example 264, 2-(5-(cyclopropanecarbonyl)-5,6,7,8-tetrahydro-1,5-naphthyridin-2-yl)-N-(4-fluorophenyl)-3-methylbutanamide] here?
Answer: The IC50 was 30.9 nM.

Question: How did the IC50 turn out when `C[C@@H](NC(=O)c1ccc(F)cc1)c1ccc2c(n1)CCCN2C(=O)C1CC1(F)F` (stereo partly drawn) [Example 133, N-{(1R)-1-[5-(2,2-difluorocyclopropane-1-carbonyl)-5,6,7,8-tetrahydro-1,5-naphthyridin-2-yl]ethyl}-4-fluorobenzamide] was run?
Answer: Its IC50 is 63.6 nM.

Question: `CC(C(=O)Nc1ccc(F)cc1)c1ccc2c(c1)CCCN2C1COC1` (stereo not shown) [Example 231, N-(4-fluorophenyl)-2-[1-(oxetan-3-yl)-1,2,3,4-tetrahydroquinolin-6-yl]propanamide] was tested. Which IC50 did it give?
Answer: The IC50 was 91.1 nM.

Question: `CC(NC(=O)c1ccc(F)cc1)c1ccc2c(n1)C(F)CCN2C(=O)C1CC1` (single isomer, unassigned) [Example 203, N-(1-(5-(cyclopropanecarbonyl)-8-fluoro-5,6,7,8-tetrahydro-1,5-naphthyridin-2-yl)ethyl)-4-fluorobenzamide] was tested. Which IC50 did it give?
Answer: Its IC50 is 7510 nM.

Question: With `CCn1cc(C(=O)N2CCCc3cc(C4(C(=O)Nc5ccc(F)cc5)CCC4)ccc32)cn1` [Example 112, 1-[1-(1-ethyl-1H-pyrazole-4-carbonyl)-1,2,3,4-tetrahydroquinolin-6-yl]-N-(4-fluorophenyl)cyclobutane-1-carboxamide] as the compound, how does the IC50 read?
Answer: Its IC50 is 2.7 nM.

Question: How did the IC50 turn out when `C[C@H](C(=O)Nc1ccc(F)cc1)c1ccc2c(c1)CCCN2C(=O)[C@@H]1CCOC1` [Example 78, (2S)-N-(4-fluorophenyl)-2-{1-[(3R)-oxolane-3-carbonyl]-1,2,3,4-tetrahydroquinolin-6-yl}propanamide] was run?
Answer: The IC50 was 51.6 nM.

Question: `CC(C(=O)Nc1ccc(F)cc1)c1ccc2c(n1)CCCN2C(=O)C1CCCCO1` (stereo not shown) [Example 158, N-(4-fluorophenyl)-2-[5-(oxane-2-carbonyl)-5,6,7,8-tetrahydro-1,5-naphthyridin-2-yl]propanamide] was tested. Which IC50 did it give?
Answer: Its IC50 is 38.1 nM.

Question: `CC(C)CC(=O)N1CCCc2cc(CNC(=O)c3ccc(I)cc3)ccc21` [Example 12, 4-iodo-N-{[1-(3-methylbutanoyl)-1,2,3,4-tetrahydroquinolin-6-yl]methyl}benzamide] was tested. Which IC50 did it give?
Answer: The IC50 was 21.1 nM.

Question: Which IC50 does the source give for `CC(C)CC(=O)N1CCCc2cc(CNC(=O)c3cccc(Cl)c3)ccc21` [Example 2, 3-chloro-N-{[1-(3-methylbutanoyl)-1,2,3,4-tetrahydroquinolin-6-yl]methyl}benzamide] here?
Answer: Its IC50 is 103 nM.

Question: For `CC(=O)N1CC(C(=O)N2CCCc3cc([C@H](C)C(=O)Nc4ccc(F)cc4)ccc32)C1` [Example 69, (2S)-2-[1-(1-acetylazetidine-3-carbonyl)-1,2,3,4-tetrahydroquinolin-6-yl]-N-(4-fluorophenyl)propanamide], which IC50 is on record?
Answer: Its IC50 is 9020 nM.

Question: Which IC50 does the source give for `C[C@H](C(=O)Nc1ccc(F)cc1)c1ccc2c(c1)CCCN2C(=O)C[C@@H](C)O` [Example 68, (2S)-N-(4-fluorophenyl)-2-{1-[(3R)-3-hydroxybulanoyl]-1,2,3,4-tetrahydroquinolin-6-yl}propanamide] here?
Answer: The IC50 was 296 nM.

Question: For `CC(NC(=O)c1ccc(F)cc1)c1ccc2c(n1)CCCN2C(=O)c1cccc(C#N)c1` (stereo not shown) [Example 147, N-{1-[5-(3-cyanobenzene-1-carbonyl)-5,6,7,8-tetrahydro-1,5-naphthyridin-2-yl]ethyl}-4-fluorobenzamide], which IC50 is on record?
Answer: The IC50 was 1.7 nM.

Question: For `CC(NC(=O)c1ccc(Cl)cc1)c1ccc2c(n1)CCCN2C(=O)C1CC1` (single isomer, unassigned) [Example 126, 4-chloro-N-{1-[5-(cyclopropanecarbonyl)-5,6,7,8-tetrahydro-1,5-naphthyridin-2-yl]ethyl}benzamide], which IC50 is on record?
Answer: The IC50 was 617 nM.

Question: With `C[C@H](NC(=O)c1ccc(F)cn1)c1ccc2c(c1)CCCN2C(=O)C1(F)CC1` (single isomer, unassigned) [Example 34] as the compound, how does the IC50 read?
Answer: Its IC50 is 800 nM.

Question: Which IC50 does the source give for `O=C(Nc1ccc(F)cc1)C1(c2ccc3c(n2)CCCN3c2ccnc(C(F)(F)F)n2)CCC1` [Example 407, N-(4-fluorophenyl)-1-(5-(2-(trifluoromethyl)pyrimidin-4-yl)-5,6,7,8-tetrahydro-1,5-naphthyridin-2-yl)cyclobutane-1-carboxamide] here?
Answer: The IC50 was 1.49 nM.

Question: With `CCOC(=O)N1CCCc2cc(C3(C(=O)Nc4ccc(F)cn4)CCC3)ccc21` [Example 211, ethyl 6-{1-[(5-fluoropyridin-2-yl)carbamoyl]-cyclobutyl}-3,4-dihydroquinoline-1(2H)-carboxylate] as the compound, how does the IC50 read?
Answer: Its IC50 is 2.2 nM.

Question: `C[C@H](C(=O)Nc1ccc(F)cn1)c1ccc2c(c1)CCCN2C(=O)c1cccc(Cl)c1` (single isomer, unassigned) [Example 54] was tested. Which IC50 did it give?
Answer: Its IC50 is 18 nM.

Question: For `C[C@@H](C(=O)Nc1ccc(F)cn1)c1ccc2c(c1)CCCN2C(=O)C1CC1` (single isomer, unassigned) [Example 60], which IC50 is on record?
Answer: Its IC50 is 124 nM.

Question: With `CC(C)CC(=O)N1CCCc2cc(CNC(=O)c3ccc(F)cc3)ccc21` [Example 11, 4-fluoro-N-{[1-(3-methylbutanoyl)-1,2,3,4-tetrahydroquinolin-6-yl]methyl}benzamide] as the compound, how does the IC50 read?
Answer: Its IC50 is 41.4 nM.

Question: `O=C(NC1(c2ccc3c(n2)CCCN3c2ccccn2)CC1)c1ccc(F)cc1` [Example 247, 4-fluoro-N-(1-(5-(pyridin-2-yl)-5,6,7,8-tetrahydro-1,5-naphthyridin-2-yl)cyclopropyl)benzamide] was tested. Which IC50 did it give?
Answer: Its IC50 is 13.9 nM.

Question: With `COc1ccnc(N2CCCc3nc(C4(NC(=O)c5ccc(F)cc5)CC4)ccc32)n1` [Example 298, 4-fluoro-N-(1-(5-(4-methoxypyrimidin-2-yl)-5,6,7,8-tetrahydro-1,5-naphthyridin-2-yl)cyclopropyl)benzamide] as the compound, how does the IC50 read?
Answer: The IC50 was 14.5 nM.

Question: For `CC(C(=O)Nc1ccc(Cl)cc1)c1ccc2c(c1)CC(F)CN2C(=O)c1cccc(Cl)c1` (single isomer, unassigned) [Example 258, 2-(1-(3-chlorobenzoyl)-3-fluoro-1,2,3,4-tetrahydroquinolin-6-yl)-N-(4-chlorophenyl)propanamide], which IC50 is on record?
Answer: Its IC50 is 5.86 nM.

Question: With `O=C(C1CCCCO1)N1CCCc2nc(C3(C(=O)Nc4ccc(F)cc4)CCC3)ccc21` (single isomer, unassigned) [Example 178, N-(4-fluorophenyl)-1-[5-(oxane-2-carbonyl)-5,6,7,8-tetrahydro-1,5-naphthyridin-2-yl]cyclobutane-1-carboxamide] as the compound, how does the IC50 read?
Answer: Its IC50 is 1.6 nM.

Question: `O=C(c1cc(C2CC2)n[nH]1)N1CCCc2cc(C3(C(=O)Nc4ccc(F)cc4)CCC3)ccc21` [Example 117, 1-[1-(3-cyclopropyl-1H-pyrazole-5-carbonyl)-1,2,3,4-tetrahydroquinolin-6-yl]-N-(4-fluorophenyl)cyclobutane-1-carboxamide] was tested. Which IC50 did it give?
Answer: The IC50 was 17.7 nM.

Question: Which IC50 does the source give for `CC(C)CC(=O)N1CCCc2cc(CNC(=O)c3ccc(C(F)(F)F)cc3)ccc21` [Example 7, N-{[1-(3-methylbutanoyl)-1,2,3,4-tetrahydroquinolin-6-yl]methyl}-4-(trifluoromethyl)benzamide] here?
Answer: The IC50 was 42.5 nM.

Question: With `COC(C)C(=O)N1CCCc2cc([C@H](C)C(=O)Nc3ccc(F)cc3)ccc21` (single isomer, unassigned) [Example 76] as the compound, how does the IC50 read?
Answer: The IC50 was 25.9 nM.

Question: Which IC50 does the source give for `C[C@H](C(=O)Nc1ccc(F)cc1)c1ccc2c(c1)CCCN2C(=O)C1CC(F)(F)C1` [Example 79, (2S)-2-[1-(3,3-difluorocyclobutane-1-carbonyl)-1,2,3,4-tetrahydroquinolin-6-yl]-N-(4-fluorophenyl)propanamide] here?
Answer: Its IC50 is 34.7 nM.

Question: With `O=C(C1CCOCC1)N1CCCc2nc(C3(C(=O)Nc4ccc(F)cc4)CCC3)ccc21` [Example 181, N-(4-fluorophenyl)-1-[5-(oxane-4-carbonyl)-5,6,7,8-tetrahydro-1,5-naphthyridin-2-yl]cyclobutane-1-carboxamide] as the compound, how does the IC50 read?
Answer: Its IC50 is 3.1 nM.

Question: `C[C@H](C(=O)Nc1ccc(F)cc1)c1ccc2c(c1)CCCN2C(=O)CCOC(C)(C)C` [Example 70, (2S)-2-[1-(3-tert-butoxypropanoyl)-1,2,3,4-tetrahydroquinolin-6-yl]-N-(4-fluorophenyl)propanamide] was tested. Which IC50 did it give?
Answer: The IC50 was 3380 nM.

Question: For `C[C@H](C(=O)Nc1ccc(F)cc1)c1ccc2c(c1)CCCN2C(=O)CC#N` [Example 85, (2S)-2-[1-(cyanoacetyl)-1,2,3,4-tetrahydroquinolin-6-yl]-N-(4-fluorophenyl)propanamide], which IC50 is on record?
Answer: The IC50 was 2540 nM.

Question: With `O=C(c1nnc(C(F)(F)F)[nH]1)N1CCCc2cc(C3(C(=O)Nc4ccc(F)cc4)CCC3)ccc21` [Example 110, N-(4-fluorophenyl)-1-{1-[5-(trifluoromethyl)-4H-1,2,4-triazole-3-carbonyl]-1,2,3,4-tetrahydroquinolin-6-yl}cyclobutane-1-carboxamide] as the compound, how does the IC50 read?
Answer: Its IC50 is 248 nM.

Question: With `CC(C)C(=O)N1CCCc2cc([C@H](C)C(=O)Nc3ccc(F)cc3)ccc21` [Example 83, (2S)-N-(4-fluorophenyl)-2-[1-(2-methylpropanoyl)-1,2,3,4-tetrahydroquinolin-6-yl]propanamide] as the compound, how does the IC50 read?
Answer: The IC50 was 9.4 nM.

Same assay, conditions: read-out: Hela IC50

Question: With `CC(NC(=O)c1ccc(F)cc1)c1ccc2c(n1)CCCN2C(=O)OCCc1ccc(Cl)c(Cl)c1` (stereo not shown) [Example 326, 3,4-dichlorophenethyl 6-(1-(4-fluorobenzamido)ethyl)-3,4-dihydro-1,5-naphthyridine-1(2H)-carboxylate] as the compound, how does the IC50 read?
Answer: Its IC50 is 24.3 nM.

Question: With `CC(NC(=O)c1ccc(C#N)cc1)c1ccc2c(n1)CCCN2C(=O)OC1CC1` (stereo not shown) [Example 337, cyclopropyl 6-(1-(4-cyanobenzamido)ethyl)-3,4-dihydro-1,5-naphthyridine-1(2H)-carboxylate] as the compound, how does the IC50 read?
Answer: The IC50 was 88.2 nM.

Question: Which IC50 does the source give for `Cc1nc(N2CCCc3nc(C(C)NC(=O)c4ccc(Cl)cc4)ccc32)c2cc(F)ccc2n1` (stereo not shown) [Example 360, 2-(1-(4-chlorobenzamido)ethyl)-5-(6-fluoro-2-methylquinazolin-4-yl)-5,6,7,8-tetrahydro-1,5-naphthyridin-1-ium 2,2,2-trifluoroacetate] here?
Answer: Its IC50 is 25.6 nM.

Question: `CC(NC(=O)c1ccc(F)cc1)c1ccc2c(n1)CCCN2c1ccc(F)cn1` (stereo not shown) [Example 376, 4-fluoro-N-(1-(5-(5-fluoropyridin-2-yl)-5,6,7,8-tetrahydro-1,5-naphthyridin-2-yl)ethyl)benzamide] was tested. Which IC50 did it give?
Answer: The IC50 was 99.6 nM.

Question: For `Cc1nccc(N2CCCc3nc(C(C)C(=O)Nc4ccc(F)cc4)ccc32)n1` (stereo not shown) [Example 372, N-(4-fluorophenyl)-2-(5-(2-methylpyrimidin-4-yl)-5,6,7,8-tetrahydro-1,5-naphthyridin-2-yl)propanamide], which IC50 is on record?
Answer: The IC50 was 5.34 nM.
